US20170252469A9, “Method for predicting autism spectrum disorders by cannabinoid and cannabinoid receptor expression” (The United of America as represented by the Secretary of …, priority 2011, published 2017)
Entries after “also recorded” stand apart in the source; their conditions may differ.

Key:
BTBR mice [1] = experiment: marble burying test in BTBR mice, acute treatment; format: in vivo, mouse; conditions: 30 min, FIG. 2d
Description: (§1) The cannabinoid agonist WIN55,212-2 (Ascent Scientific, Princeton, N.J., USA) was dissolved initially in dimethyl-sulfoxide (DMSO Sigma) and was diluted with saline (1:10) to administer 0.1 mg/kg i.p. in 10% DMSO to mice. […] Injections were given 30 minutes prior to introduction to the testing arena for conditioning, and 50 min prior to behavior testing.

BTBR mice [2] = experiment: three-chamber social approach test in BTBR mice; format: in vivo, mouse
Description: (§2) BTBR T+tf/J, 129S1/SvImJ and C57BL/6 mouse colony founders were originally obtained from the Jackson Laboratory (Bar Harbor, Me., USA). These strains were bred in the animal facilities of the University of Texas Health Science Center at San Antonio through 2 generations. After weaning at 23-25 days of age, male littermates were housed in groups of 4-5 per cage until behavioral testing at 3-4 months of age. Mice had ad libitum access to food (Teklad™ rodent diet, Harlan, Indianapolis, Ind., USA) and water in ventilated clear plastic cages lined with chipped wood bedding.
as §1
The three-chamber sociability testing procedure for mice is described in detail in Yang et al. Curr. Protoc. Neurosci., Chapter 8: Unit 8. 26 (2011), our study was conducted in a manner consistent with that protocol. Mice were introduced into the center chamber of an acrylic three-chamber sociability arena, measuring 30×22×61 cm with a light tan bottom, black side walls and two transparent interior walls with slat door openings of 10 cm^2 […] dividing the arena into 3 chambers, for 20 min prior to behavioral testing. As described in Gould et al. J. Neurochem., 116: 291-303 (2011), pre-conditioning was performed under low red light (16 lux) at first for 10 min with the mouse confined in the center chamber, then with the doors opened so the subject could explore the entire arena for 10 min longer. Just prior to testing, subjects were briefly confined in the center chamber while an empty wire cup cage was placed at one end of the arena, and a stranger mouse of the same strain was placed under an identical cup cage at the opposite end. Stranger mice were neither litter- nor cage-mates of the subjects and were housed in a separate ventilated cage rack. Stranger mice were pre-conditioned under cup cages in 3 sessions of 30 min each in the day(s) prior to testing, separated by 1 hour reprises in their home cages. Cup cages were topped with weighted jars (9 cm high×7 cm diameter) to prevent mice from climbing on top of them. Digital video cameras (Hewlett-Packard Photosmart™ R742, Palo Alto, Calif., USA) positioned on top of tripods overseeing the arenas were turned on, the doors were removed and social approach behavior was recorded for 10 min under low red light.

129S1/SvImJ mice [3] = experiment: three-chamber social novelty test in 129S1/SvImJ mice; format: in vivo, mouse; conditions: 129S, FIG. 3c; for time in the arena chamber with a new stranger mouse: acetaminophen 100 mg/kg i.p.
Description: as §1
(§3) The social approach test ended with confinement of the subject into the center chamber and closing of the slat doors. A new stranger mouse was then placed under the empty cup cage, the doors were opened, and behavior was recorded for another 10 min under low red light to assess preference for social novelty. At the end of the test, stranger mice were returned to their home cages for use in subsequent tests, and subject mice were removed from the arena and placed in a marble burying test. The number of boli in the center of the arena was counted prior to cleaning the arena with a solution of 70% EtOH and paper towels prior to conditioning and testing the next animal. Digital videos were analyzed for box entries, time in box and social sniffing time by observers blind to mouse strain or drug treatments.

5-HT neurons = conditions: literature; cited from earlier work
BTBR mice [4] = experiment: three-chamber social novelty test in BTBR mice; format: in vivo, mouse; conditions: WIN 55,212-2 0.1 mg/kg i.p.; for time in the chamber with the novel stranger / chamber entries: acetaminophen 100 mg/kg; for time in the chamber with the novel stranger: vs controls; for chamber entries: social novelty test, BTBR
Description: as §1, §3

129S1/SvImJ mice [5] = experiment: three-chamber social approach test in 129S1/SvImJ mice; format: in vivo, mouse; conditions: 129S
Description: as §2, §1
The three-chamber sociability testing procedure for mice is described in detail in Yang et al. Curr. Protoc. Neurosci., Chapter 8: Unit 8. 26 (2011), our study was conducted in a manner consistent with that protocol. Mice were introduced into the center chamber of an acrylic three-chamber sociability arena, measuring 30×22×61 cm with a light tan bottom, black side walls and two transparent interior walls with slat door openings of 10 cm^2 […] dividing the arena into 3 chambers, for 20 min prior to behavioral testing. As described in Gould et al. J. Neurochem., 116: 291-303 (2011), pre-conditioning was performed under low red light (16 lux) at first for 10 min with the mouse confined in the center chamber, then with the doors opened so the subject could explore the entire arena for 10 min longer. […] Digital video cameras (Hewlett-Packard Photosmart™ R742, Palo Alto, Calif., USA) positioned on top of tripods overseeing the arenas were turned on, the doors were removed and social approach behavior was recorded for 10 min under low red light.

BTBR and C57BL/6 mice = experiment: marble burying after injections in early postnatal development; format: in vivo, mouse; conditions: 100 mg/kg i.p. injections from 18-21 days postnatal, 59 days, FIG. 5
Description: (§4) The mice were then tested for marble burying and evaluated for neurochemical measures.

129S1/SvImJ mice [6] = experiment: marble burying test in 129S1/SvImJ mice, acute treatment; format: in vivo, mouse; conditions: 129S, acetaminophen 100 mg/kg i.p., FIG. 3d
Description: as §1

BTBR mice [7] = experiment: 2-AG levels after injections in early postnatal development; format: in vivo, mouse; conditions: 100 mg/kg i.p. injections from 18-21 days postnatal, 59 days, FIG. 6
Description: as §4

5-HT receptors = conditions: literature; cited from earlier work
mice = conditions: administration of anandamide or high doses of acetaminophen; Umathe et al. 2009; cited from earlier work

Cc1c(C(=O)c2cccc3ccccc23)c2cccc3c2n1[C@H](CN1CCOCC1)CO3 [WIN 55,212-2]
marbles buried (BTBR mice [1]): trend toward WIN 55212 treated mice burying fewer than controls | time in the arena center (BTBR mice [2]; WIN 55,212-2 0.1 mg/kg i.p., social approach, FIG. 2a): increased lingering in the arena center | dwelling in the center chamber (129S1/SvImJ mice [3]; WIN 55,212-2 0.1 mg/kg i.p.): increased dwelling in the center chamber of the arena | presynaptic 5-HT release in brain (5-HT neurons): inhibit presynaptic 5-HT release in brain | time in the arena center (BTBR mice [4]; social novelty, FIG. 2c): reduced dwelling in the arena center; also recorded: spent less time than the other groups in the arena center | time in the chamber with the novel stranger (BTBR mice [4]; FIG. 2c): reduced time spent in the chamber of the arena with a novel stranger; also recorded: spent less time in the box with the novel stranger than controls | chamber entries (BTBR mice [4]): 19±3 | time in the center chamber (129S1/SvImJ mice [5]; WIN 55,212-2 0.1 mg/kg i.p.): increased time spent by 129S mice in the arena center; also recorded: spent more time than acetaminophen (100 mg/kg) or vehicle (saline±10% DMSO) treated mice in the center chamber

CC(=O)Nc1ccc(O)cc1 [acetaminophen]
marble burying behavior (BTBR and C57BL/6 mice): induced significant marble burying behavior | marble burying (129S1/SvImJ mice [6]): greater than in vehicle-control or WIN 55,212-2 treated 129S mice | marble burying (129S1/SvImJ mice [6]; listed as Acetaminophen): increased marble burying behavior relative to control or WIN 55,212 treatments | 2-AG levels (BTBR mice [7]): significant affect on 2-AG levels; also recorded: diminution of 2-AG levels | affinity for 5-HT receptors (5-HT receptors): little to no affinity for 5-HT receptors | dwelling near confined stranger mice (BTBR mice [2]; 100 mg/kg i.p. 50 min prior to testing, adult male BTBR, FIG. 1): increased dwelling near confined stranger mice | dwelling near confined stranger mice (BTBR mice [2]; 400 mg/kg i.p. 50 min prior to testing, adult male BTBR, FIG. 1): increased dwelling near confined stranger mice | time in the chamber with the empty cage (BTBR mice [2]; acetaminophen 100 mg/kg i.p., vs vehicle controls or WIN 55,212-2 0.1 mg/kg): less time in the chamber with the empty cage | time in the chamber with the stranger mouse (BTBR mice [2]; acetaminophen 100 mg/kg i.p., vs vehicle controls or WIN 55,212-2 0.1 mg/kg, FIG. 2a): increased dwelling near stranger mice; also recorded: spent more time in the chamber with the stranger mouse | lowest dose to significantly increase time spent in the chamber with a stranger mouse above saline-injected controls (BTBR mice [2]; adult male BTBR, dose-response 1-400 mg/kg i.p., FIG. 1): 100 mg/kg | time in the arena chamber with a new stranger mouse (129S1/SvImJ mice [3]): spent significantly more time than controls in the arena chamber with a new stranger mouse | time in the arena chamber with a new stranger mouse (129S1/SvImJ mice [3]; listed as Acetaminophen): increased dwelling near new strangers relative to controls | social interactions (mice): promote social interactions in mice | time in the chamber with the novel stranger (BTBR mice [4]; FIG. 2c): reduced time spent in the chamber of the arena with a novel stranger; also recorded: spent less time in the box with the novel stranger than controls | chamber entries (BTBR mice [4]): 50±7 | time spent sniffing the stranger mouse or investigating the empty cage (129S1/SvImJ mice [5]; FIG. 3b): trend toward acetaminophen-treated 129S mice spending more time investigating strangers that did not reach significance | chamber entries (129S1/SvImJ mice [5]; acetaminophen 100 mg/kg, WIN 55,212-2 0.1 mg/kg i.p.): 21±5

CCCCC/C=C\C/C=C\C/C=C\C/C=C\CCCC(=O)NCCO [anandamide, N-arachidonoylethanolamine]
social interactions (mice): promote social interactions in mice
